IC50 data for three molecules are collected here from patent US12662490B2, “Heterocyclic compounds” (Hoffmann-La Roche Inc., priority 2019, dated 2026).

For this assay, the target named is T1, MAGL (Homo sapiens, UniProt Q99685).
T1 sequence (Q99685 1-303): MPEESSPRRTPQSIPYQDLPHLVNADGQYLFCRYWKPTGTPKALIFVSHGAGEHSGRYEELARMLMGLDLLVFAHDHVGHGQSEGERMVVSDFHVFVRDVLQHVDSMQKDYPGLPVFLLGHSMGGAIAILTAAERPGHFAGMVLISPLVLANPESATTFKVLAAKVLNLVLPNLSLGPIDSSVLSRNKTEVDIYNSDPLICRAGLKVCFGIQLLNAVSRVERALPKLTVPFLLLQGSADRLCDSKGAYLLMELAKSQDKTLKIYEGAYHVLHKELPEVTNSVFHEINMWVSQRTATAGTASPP
Nature of the assay: 2-AG assay (MAGL inhibitory activity; hydrolysis of 2-arachidonoylglycerol to arachidonic acid followed by mass spectrometry). The format is biochemical. To be noted: 15 min preincubation at RT, 8 μM 2-arachidonoylglycerol, 30 min at RT, RapidFire MS readout. In outline:
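Compounds (final 12.5 μM to […], 3-fold steps) preincubated 15 min at RT with MAGL ([…]) in 50 mM TRIS, 1 mM EDTA, Tween buffer. Reaction started with 8 μM 2-arachidonoylglycerol, run 30 min at RT, quenched with ACN containing d8-arachidonic acid. Arachidonic acid quantified by RapidFire SPE-triple quadrupole MS (negative ESI), activity from arachidonic acid/d8 ratio.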

Molecules are shown by their SMILES.

Turning to `O=C(c1cccc(-c2ccnnc2)c1Cl)N1CCN2C[C@@H](c3ccc(F)c(Cl)c3)OC[C@@H]2C1` [Example 29, [(3R,9aS)-3-(3-chloro-4-fluoro-phenyl)-3,4,6,7,9,9a-hexahydro-1H-pyrazino[2,1-c][1,4]oxazin-8-yl]-(2-chloro-3-pyridazin-4-yl-phenyl)methanone], half-maximal inhibition (IC50) required 202 nM.

With `O=C(c1cccc(-c2c[nH]nc2F)c1Cl)N1CCN2CC(c3ccc(OC(F)F)cc3)OC[C@@H]2C1` (mixture of isomers) [Example 73, (2-chloro-3-(3-fluoro-1H-pyrazol-4-yl)phenyl)((9aS)-3-(4-(difluoromethoxy)phenyl)hexahydropyrazino[2,1-c][1,4]oxazin-8(1H)-yl)methanone], half-maximal inhibition (IC50) was put at 53.3 nM.

For `O=C(c1cccc(-c2c[nH]nc2F)c1Cl)N1CCN2C[C@@H](c3ccc(F)c(Cl)c3)OC[C@@H]2C1` [Example 49, [(3R,9aS)-3-(3-chloro-4-fluoro-phenyl)-3,4,6,7,9,9a-hexahydro-1H-pyrazino[2,1-c][1,4]oxazin-8-yl]-[2-chloro-3-(3-fluoro-1H-pyrazol-4-yl)phenyl]methanone], the IC50 (in general, the concentration needed to halve the response being measured) worked out at 1 nM.
